Marks after values point to notes of the source that are not given here. Square brackets hold non-standard residues; d marks the D form. Ends that are not written are not given here. Peptide text beside a SMILES is read from it. * marks the point of attachment. Pentanoyl(2-Pr) = CCCC(CCC)C(=O)*; Decanoyl = CCCCCCCCCC(=O)*
Assays:
[1] = Ferric iron-binding assay of biotinylated immodulin peptides; conditions: N-terminally biotinylated peptide, 400 ng per well, 60 min room temperature; immX3AVD = 100
Description: N-terminally biotinylated versions of the peptides listed below were used in ferric iron-binding assays involving either an Alexa488-labeled streptavidin protocol (Binding Assay 1) or FITC-NTA assay (Binding Assay 2). Fluorescence was standardized to binding with immX3AVD control peptide (100) and the average of multiple experiments using both protocols is shown. P values are shown relative to the control immX3AVD peptide (**<0.05). D-amino acid residues are underlined in the sequences and the extension tripeptide of immX peptides is shown in bold font. Binding Assay 1 was done as follows: NTA coated 96-well plates (G-Biosciences, St. Louis, MO) were charged with ferric chloride and contacted with equimolar biotinylated peptide: streptavidin-A488 complex (400 ng peptide per well) for 60 min at room temperature, washed with phosphate-buffered saline (PBS) and read at 525 nm in a fluorescence counter. Binding Assay 2 was done as follows: Streptavidin coated 96-well plates (G-Biosciences, St. Louis, MO) were contacted with 400 ng peptide per well in PBS buffer for 60 minutes at room temperature, washed in PBS, then contacted with FITC-NTA (TRC, Toronto, Canada) complexed with equimolar ferric chloride (10× molar equivalent per well) for 60 min at room temperature, washed with PBS and read at 525 nm in a fluorescence counter.

[2] = Experiment 4D binding to FITC-labelled heparin; conditions: biotinylated peptide 1 ug/well; 1 ug FITC-labelled heparin, 90 minutes
Experimental: (§1) Streptavidin-coated 96-well plates (G-Biosciences, St. Louis, MO) were pre-treated with biotinylated peptides [see Example 1 for key] at 1 ug/well, at room temperature for 60 minutes. The plate was washed with PBS buffer and then 1 ug FITC-labelled heparin or hyaluronic acid in 100 uL PBS buffer was added per well (all tests in quadruplicate). Incubation proceeded for 90 minutes at room temperature, followed by two PBS washes. The plate was read in a standard laboratory fluorometer (488/525 nm exitation/[…]) and the counts normalized for immX3 peptide binding=100. Values statistically above background are shown in bold font. **p<0.05 versus immX3AVD.

[3] = Experiment 4D binding to FITC-labelled hyaluronic acid; conditions: biotinylated peptide 1 ug/well; 1 ug FITC-labelled hyaluronic acid, 90 minutes
Experimental: as §1

[4] = test system: HFF-1 human fibroblast cell line; test: Collagen-1 ELISA in HFF-1 dermal fibroblasts; type: cell-based; conditions: peptide 2 uM, 72 hour incubation
Experimental: Immodulin peptides have potential untility in the field of cosmetics. HFF-1 human fibroblast cell line was obtained from the American Type Culture Collection (ATCC). Cells were grown in a T-75 flask in DMEM Medium containing 10% fetal bovine serum and penicillin-streptomycin at 37° C. in a humidified, 5% CO2 incubator. Cells (100 µl, 2,000 cells/well) were plated in a 96-well plate and incubated overnight at 37° C. in a humidified, 5% CO2 incubator. Next day, 10 µl/well of compounds were added (quadruplicate wells). After 72 hour incubation with the compound, supernatants were collected for Collagen-1 ELISA assay and cell viability was measured in a luminometer after the addition of 100 IL/well CellTiterGlo reagent (Promega Inc, Madison, WI) as recommended by the manufacturer. Collagen stimulating activity of immodulin peptides in HFF-1 dermal fibroblasts: Peptides were added to cells at 2 uM. COL1 immunoreactivity was measured in the supernatants of cultured cells by ELISA using a rabbit monoclonal anti-COL1 primary antibody (Abcam, Cambridge, MA). Control (buffer) value of immunoreactivity was set to 100.

[5] = test system: rat scald-endotoxemia model; test: Experiment 5B rat scald-endotoxemia model; type: in vivo, Sprague Dawley rats
Experimental: Experiment 5B. This study explores the effect of immX extensions on sV-nephrilin (SEQ ID NO:31) vs V-nephrilin, as well as in a longer peptide also containing the immX extension (Traumatin-3N1A: SEQ ID NO:35) on in vivo efficacy in a rat scald-endotoxemia model. Animals were treated with peptides using a widely used protocol previously described (see, for example, U.S. Pat. No. 10,369,191). Adult Sprague Dawley rats of both sexes (250-300 gm, Charles River Laboratories, Wilmington, MA, USA) were injected with peptide plus equimolar ferric iron once daily by subcutaneous bolus injection, days 1-7; Treatment group sizes were (n=6): group S=sham-treated; group B=burn+vehicle; group V=burn+1 mg/kg V-nephrilin (V); group sV=burn+1 mg/kg sV-nephrilin (immX3N1sV); group T=burn+1 mg/kg Traumatin-3N1A. The first dose was administered after completion of the scald procedure. Injection volume was 400 uL. Control animals received the same volume of vehicle. On Day 8, animals received a single intraperitoneal injection of 2.5 mg/kg lipopolysaccharide (LPS; Sigma Cat #L-2880) and animals were then monitored by oximeter (MouseOx, Starr Life Sciences) for 4 hours, when respiratory distress (breath distension*breaths/min) was assessed relative to baseline. This was followed by sacrifice and tissue collection as in the published protocol, except that bronchoalveolar lavage (BAL) was collected and cells were recovered from BAL by centrifugation. These cells were stained with fluorescently-labeled antibodies for flow cytometry in order to ascertain granulocyte counts, as shown below. Results of the peptide comparison are presented in the table below. *p<0.05 vs “B” control. #p<0.05 vs “V” group.

[6] = Day 1, burn + 1 mg/kg peptide plus equimolar ferric iron, subcutaneous once daily
[7] = Day 8, after LPS, burn + 1 mg/kg peptide days 1-7

Ferric iron binding, fluorescence standardized to immX3AVD control peptide (100), Avg ± SD [1]	Molecule	COL1 immunoreactivity in supernatants, control (buffer) set to 100 [4]	also measured
108.2 ± 6.6	SLNPEWNETKGFYKKKQCRPSKGRKRGFCW[dA][dV][dD] (cysteine pairing not given here) [immX3K1dAdVdD]		Heparin binding, counts normalized for immX3 peptide binding=100 [2]: 56.0 ± 7.3**; Hyaluronate binding, counts normalized for immX3 peptide binding=100 [3]: 101.9 ± 16.4
	CCCCCCCCCC(=O)N[C@@H](CCCCN)C(=O)N[C@@H](CCCCN)C(=O)NCC(=O)N[C@@H](Cc1ccccc1)C(=O)N[C@@H](Cc1ccc(O)cc1)C(=O)N[C@@H](CCCCN)C(=O)N[C@@H](CCCCN)C(=O)N[C@@H](CCCCN)C(=O)N[C@@H](CCC(N)=O)C(=O)N[C@@H](CS)C(=O)N[C@@H](CCCNC(=N)N)C(=O)N1CCC[C@H]1C(=O)N[C@@H](CO)C(=O)N[C@@H](CCCCN)C(=O)NCC(=O)N[C@@H](CCCNC(=N)N)C(=O)N[C@@H](CCCCN)C(=O)N[C@@H](CCCNC(=N)N)C(=O)NCC(=O)N[C@@H](Cc1ccccc1)C(=O)N[C@@H](CS)C(=O)N[C@@H](Cc1c[nH]c2ccccc12)C(=O)O [imm3dec] (Decanoyl-KKGFYKKKQCRPSKGRKRGFCW-OH; C-terminus assumed)	114	
	FNSYELGSLKKGFYKKKQCRPSKGRKRGFCW [imm3K8]	98	
133.6±	KKGFYKKKQCRPSKGRKRGFCW(dS)(dV)(dD) (KKGFYKKKQCRPSKGRKRGFCW[dS][dV][dD]; cysteine pairing not given here) [immX3dSdVdD]		
1.2 ± 1.3**	RNGNFHPKQCHPALDGQRGKCWAVD [immX4AVD]		Heparin binding, counts normalized for immX3 peptide binding=100 [2]: 7.3 ± 17.1; Hyaluronate binding, counts normalized for immX3 peptide binding=100 [3]: 61.1 ± 34.1
88.1 ± 14.2	RKGFYKRKQCKPSRGRKRGICWAVD [immX5AVD]		Heparin binding, counts normalized for immX3 peptide binding=100 [2]: 68.7 ± 26.2; Hyaluronate binding, counts normalized for immX3 peptide binding=100 [3]: 113.9 ± 15.7
108.1 ± 1.5	KKGFYKKKQCRPSKGRKRGFCW[dA]VD (cysteine pairing not given here) [immX3dAVD]		
	AFNSYELGSKKGFYKKKQCRPSKGRKRGFCW [imm3K9.1]	156**	
	(rhn)-KKGFYKKKQCRPSKGRKRGFCW (rhein-KKGFYKKKQCRPSKGRKRGFCW; cysteine pairing not given here) [imm3rhn, imm3 N-terminally conjugated with rhein]	68**	
102.4 ± 9.1	KKGFYKKKQCRPSKGRKRGFCW[dA][dV][dD] (cysteine pairing not given here) [immX3dAdVdD]		Heparin binding, counts normalized for immX3 peptide binding=100 [2]: 55.5 ± 5.7**; Hyaluronate binding, counts normalized for immX3 peptide binding=100 [3]: 104.2 ± 14.7
	AFNSYELGSKGFYKKKQCRPSKGRKRGFCW [imm3K9]	155**	
	(bex)-KKGFYKKKQCRPSKGRKRGFCW (not fully specified (N-terminus); printed as (bex)-KKGFYKKKQCRPSKGRKRGFCW; cysteine pairing not given here) [imm3bex]	102	
78.3 ± 6.5**	CC(C)[C@H](NC(=O)[C@H](Cc1ccccc1)NC(=O)[C@H](Cc1c[nH]c2ccccc12)NC(=O)[C@H](CS)NC(=O)[C@H](Cc1ccccc1)NC(=O)CNC(=O)[C@H](CCCNC(=N)N)NC(=O)[C@H](CCCCN)NC(=O)[C@H](CCCNC(=N)N)NC(=O)CNC(=O)[C@H](CCCCN)NC(=O)[C@H](CO)NC(=O)[C@@H]1CCCN1C(=O)[C@H](CCCNC(=N)N)NC(=O)[C@H](CS)NC(=O)[C@H](CCC(N)=O)NC(=O)[C@H](CCCCN)NC(=O)[C@H](CCCCN)NC(=O)[C@H](CCCCN)NC(=O)[C@H](Cc1ccc(O)cc1)NC(=O)[C@H](Cc1ccccc1)NC(=O)CNC(=O)[C@H](CCCCN)NC(=O)[C@@H](N)CCCCN)C(=O)N[C@@H](CO)C(=O)O [immX3FVS] (H-KKGFYKKKQCRPSKGRKRGFCWFVS-OH; N-terminus and C-terminus assumed)		
	(cin)-KKGFYKKKQCRPSKGRKRGFCW ({cinnamic acid}-KKGFYKKKQCRPSKGRKRGFCW; cysteine pairing not given here) [imm3cin, imm3 N-terminally conjugated with cinnamic acid]	106	
	(isf)-KKGFYKKKQCRPSKGRKRGFCW ({isoferulic acid}-KKGFYKKKQCRPSKGRKRGFCW; cysteine pairing not given here) [imm3isf, imm3 N-terminally conjugated with isoferulic acid]	131*	
	CCCC(CCC)C(=O)N[C@@H](CCCCN)C(=O)N[C@@H](CCCCN)C(=O)NCC(=O)N[C@@H](Cc1ccccc1)C(=O)N[C@@H](Cc1ccc(O)cc1)C(=O)N[C@@H](CCCCN)C(=O)N[C@@H](CCCCN)C(=O)N[C@@H](CCCCN)C(=O)N[C@@H](CCC(N)=O)C(=O)N[C@@H](CS)C(=O)N[C@@H](CCCNC(=N)N)C(=O)N1CCC[C@H]1C(=O)N[C@@H](CO)C(=O)N[C@@H](CCCCN)C(=O)NCC(=O)N[C@@H](CCCNC(=N)N)C(=O)N[C@@H](CCCCN)C(=O)N[C@@H](CCCNC(=N)N)C(=O)NCC(=O)N[C@@H](Cc1ccccc1)C(=O)N[C@@H](CS)C(=O)N[C@@H](Cc1c[nH]c2ccccc12)C(=O)O [imm3vlp] ({Pentanoyl(2-Pr)}-KKGFYKKKQCRPSKGRKRGFCW-OH; C-terminus assumed)	157**	
	AFNSYELGSKGFYKKKQCRPSKGRKRGFCWAVDKY [imm3K9c]	158**	
	Traumatin-3N1A: a longer peptide also containing the immX extension (SEQ ID NO:35) (RGVTEDYLRLETLVQKVVSPYLKGFYKKKQCRPSKGRKRGFCWAVD)		Plasma IL-6 (pg/ml) [5, 6]: 22.5 ± 11*^ pg/ml; Plasma albumin mg/ml (24 hr IR) [5, 6]: 7.6 ± 0.9* mg/ml; Change in body weight (Pct vs Day 1) ([5]; Day 5, burn + 1 mg/kg peptide plus equimolar ferric iron, subcutaneous once daily): −5.3 ± 3.5* Pct; Respiratory distress (Gp. “S” = 100) ([5]; Day 8, 4 hours after LPS, burn + 1 mg/kg peptide days 1-7): 197 ± 39*#; Wet/dry lung weight (corrected for body weight) ([5]; Day 8, after LPS 2.5 mg/kg ip, burn + 1 mg/kg peptide days 1-7): 6.74 ± 0.61*; BAL fluid IL1-beta (pg/ml) [5, 7]: 45.7 ± 24*# pg/ml; Plasma OHDG (ng/ml) [5, 7]: 1.24 ± 0.4* ng/ml; Plasma creatinine (mg/dL) [5, 7]: 0.64 ± 0.2* mg/dL
